# From ChEMBL document CHEMBL1157238, “An unusual oxalylated tetramic acid from the New Zealand basidiomycete Chamonixia pachydermis” (2006)
# System: Bacillus subtilis
# Assay: Antibacterial activity against Bacillus subtilis at 40 ug by agar diffusion assay
# Type: functional
# Details: read-out: IZ
structure (smiles),measurement,value
O=C(O)C(=O)C1=C(O)/C(=C/c2ccc(O)c(Cl)c2)NC1=O [PACHYDERMIN],zone of inhibition at 40 µg/disc,1 mm
